Data reported in patent US20250262273A1, “MODIFIED CAVEOLIN-1 PEPTIDES FOR THE TREATMENT OF CHRONIC KIDNEY DISEASE” (Rein Therapeutics, Inc., priority 2021, published 2025).
Where “and” joins values, the source holds several entries; their conditions need not be identical. Equal values may be shown once. Non-standard residues stand in square brackets, D forms with d.

Columns and labels:
[1] = system: Col4a3−/− mice on a 129S1/SvlmJ background; experiment: Col4a3−/− mouse model of Alport syndrome, Study 1: two weeks of treatment; format: in vivo; settings: for immunofluorescence staining of collagen I and nidogen on kidney tissue / immunofluorescence staining of collagen I and αSMA on kidney tissue: 0.0022 mg/g i.p. daily for 2 weeks, same finding in saline-treated mice
Excerpt: (§1) The objective of this study was to evaluate the efficacy of the modified Cav-1 peptide APi2355 in ameliorating kidney fibrosis and disease using the Col4a3−/− mouse model of Alport syndrome. Alport syndrome mice (knockouts) have reduced Cav-1 expression in glomerulae tubules and develop glomerular fibrosis.
Col4a3−/− on the 129S1/SvlmJ develop end-stage renal disease at a faster rate compared to Col4a3−/− mice on the C57BL/6 background. Five week-old (Cohort 2) and 6 week-old (Cohort 1) Col4a3−/− mice on a 129S1/SvlmJ background were intraperitoneally injected daily with APi2355 (SEQ ID NO: 8, 0.0022 mg/g body weight) or with normal saline for 2 weeks. Urine was collected prior to treatment and on the day of sacrifice to monitor for glomerular permselectivity by measuring albumin to creatinine (A/C) ratios. Blood was collected on the day of sacrifice to monitor for glomerular filtration rate by blood urea nitrogen (BUN) assay and kidney tissue was collected following sacrifice to assess for renal injury and fibrosis. Mouse identification numbers were used to differentiate treatment groups.

[2] = system: Col4a3−/− mice on a 129S1/SvlmJ background; experiment: Col4a3−/− mouse model of Alport syndrome, Study 2: four weeks of treatment; format: in vivo; settings: for Moderately Sclerotic Glom / Severely Sclerotic Glom / Moderately Sclerotic Glom (%) / Sclerotic Glom (%) / Severely Sclerotic Glom (%): 8 week-old, 4 weeks daily i.p. 0.0022 mg/g; for Moderately Sclerotic Glom / Severely Sclerotic Glom: count per individual mouse; for Moderately Sclerotic Glom (%) / Sclerotic Glom (%) / Severely Sclerotic Glom (%): per individual mouse
Method: as §1
Four week-old Col4a3−/− mice on a 129S1/SvlmJ background were intraperitoneally injected daily with APi2355 (SEQ ID NO: 8, 0.0022 mg/g body weight) or with normal saline for 4 weeks. Urine was collected prior to treatment at 4 weeks-old and at 6, 7, and 8-weeks-old following treatment to monitor for glomerular permselectivity by measuring albumin to creatinine (A/C) ratios. Blood was collected prior to treatment at 4 weeks-old and at 6 and 8 weeks-old following treatment to monitor for glomerular filtration rate using the BUN assay and kidney tissue was collected following sacrifice to assess for renal injury and fibrosis. Mouse identification numbers were used to differentiate treatment groups.

[3] = system: bleomycin-treated aged male mice; experiment: Bleomycin model of lung fibrosis in aged mice, Study 1 (Total Collagen Assay); format: in vivo, mouse; settings: bleomycin 4 U/kg intratracheal, mice 74 to 76 weeks-old, dry powder inhalation, compared to control peptide
Excerpt: (§2) The objective of this study was to evaluate the modified Cav-1 peptide CSP-7 in a bleomycin model of idiopathic pulmonary fibrosis and acute respiratory distress syndrome (ARDS). Aged male mice were selected to closely match the population of humans most vulnerable to ARDS.
Aged male mice, which have a higher burden of senescent cells and therefore less regenerative potential, were used to test the efficacy of CSP-7 (SEQ ID NO: 3). Mice were between 74 to 76 weeks-old at the time of intratracheal bleomycin installation (4 U/kg body weight; n=5-8 mice/group). The Total Collagen Assay (QuickZyme Biosciences) was used to assess total collagen in lung tissue, which first hydrolyzes proteins in the lung homogenate then oxidizes hydroxyproline and stains.

BLM-treated aged mice = experiment: Bleomycin model of lung fibrosis in aged mice, Study 2; format: in vivo; settings: BLM 8 U/kg intratracheal, 73-74 week-old mice, 0.5 mg/mouse dry powder inhalation from day 14, sacrifice day 21, compared to control peptide
Method: as §2
Bleomycin (BLM, 8 U/kg) was administered intratracheally to 73-74 week-old mice (n=52) expecting approximately 50% loss of mice due to BLM-induced lung injury. On day 14 post-instillation, CSP-7 and a control peptide (CP) was administered to mice via dry powder inhalation (DPI) or intraperitoneal injection (IP) as shown in Table B below. On day 21 post-instillation, mice were sacrificed and blood and tissues were collected for analysis. Statistics were performed using Dunnett's multiple comparison test.

[4] = Cohort 1 (treatment start 6 weeks-old)
[5] = Cohort 2 (treatment start 5 weeks-old)
[6] = treatment starting at 4 weeks of age, 4 weeks, vs saline

## Ac-aaEGKASFTTFTVTKGSaa-NH2 (Ac-[dA][dA]EGKASFTTFTVTKGS[dA][dA]-NH2; SMILES CC(=O)N[C@H](C)C(=O)N[C@H](C)C(=O)N[C@@H](CCC(=O)O)C(=O)NCC(=O)N[C@@H](CCCCN)C(=O)N[C@@H](C)C(=O)N[C@@H](CO)C(=O)N[C@@H](Cc1ccccc1)C(=O)N[C@H](C(=O)N[C@H](C(=O)N[C@@H](Cc1ccccc1)C(=O)N[C@H](C(=O)N[C@H](C(=O)N[C@H](C(=O)N[C@@H](CCCCN)C(=O)NCC(=O)N[C@@H](CO)C(=O)N[C@H](C)C(=O)N[C@H](C)C(N)=O)[C@@H](C)O)C(C)C)[C@@H](C)O)[C@@H](C)O)[C@@H](C)O) [APi2355, modified Cav-1 peptide]
[1]; [4]
  immunofluorescence staining of collagen I and nidogen on kidney tissue: additional staining in sclerotic glomeruli
  immunofluorescence staining of collagen I and αSMA on kidney tissue: additional staining in sclerotic glomeruli
[1]; Cohort 1 and Cohort 2, 2 weeks of treatment, same in saline-treated mice
  kidney sclerosis, overall: severe sclerosis in the interstitium and many sclerotic glomeruli
[1]; [5]
  immunofluorescence staining of collagen I and nidogen on kidney tissue: additional staining in sclerotic glomeruli
  immunofluorescence staining of collagen I and αSMA on kidney tissue: additional staining in sclerotic glomeruli
[2]; female Col4a3−/− mice
  Moderately Sclerotic Glom: 0 and 1 (2×)
  Severely Sclerotic Glom: 4
  Moderately Sclerotic Glom (%): 0.0% and 2.0% and 2.1%
  Sclerotic Glom (%): 7.4% and 9.8% and 10.6%
  Severely Sclerotic Glom (%): 7.4% and 7.8% and 8.5%
[2]; females, treatment starting at 4 weeks of age, 4 weeks, vs saline
  percentage of sclerotic glomeruli as assayed by collagen I deposition: reduced the percentage of sclerotic glomeruli in females
[2]; male Col4a3−/− mouse
  Moderately Sclerotic Glom: 6
  Severely Sclerotic Glom: 21
  Moderately Sclerotic Glom (%): 15.0%
  Sclerotic Glom (%): 67.5%
  Severely Sclerotic Glom (%): 52.5%
[2]; mouse model of Alport syndrome, overall conclusion
  glomerular fibrosis: reduced glomerular fibrosis
[2]; [6]
  progression of BUN: did not slow the progression
  progression of albuminuria: did not slow the progression

## FTTFTVT (Modified Caveolin-1 peptide) [CSP-7, seven amino acid fragment of the human CSD of caveolin-1]
[3]
  total collagen in the lung: reduction in total collagen
BLM-treated aged mice
  total collagen in the lung: reduction in total collagen
